Laboratory results reported in patent US20100261774A1, “Methods for the modulation of Leishmania major infection in mammals” (Children's Hospital Medical Center, priority 2009, published 2010).
Read-outs that look alike come from different tables or passages of the source.

Legend:
visceral leishmaniasis = experiment: Treatment of visceral leishmaniasis in patients with oral 1-MT; assay type: in vivo
Description: Patients present with symptoms of fever and organomegaly of long standing that is unresponsive to standard treatment, possibly with attendant anemia and pancytopenia, with a history of travel in an area in which leishmaniasis is known to be endemic. Laboratory tests confirm a diagnosis of visceral […]. […] Patients present with symptoms of fever and organomegaly of long standing that is unresponsive to standard treatment, possibly with attendant anemia and pancytopenia, with a history of travel in an area in which leishmaniasis is known to be endemic. Laboratory tests confirm a diagnosis of visceral leishmaniasis. […] Patients present with symptoms of fever and organomegaly of long standing that is unresponsive to standard treatment, possibly with attendant anemia and pancytopenia, with a history of travel in an area in which leishmaniasis is known to be endemic. Laboratory tests confirm a diagnosis of visceral leishmaniasis.

T. gondii = details: mouse, in vivo
[1] = system: Leishmania major clone V1 (MHOM/IL/80/Friedlin)
Description: (B) Parasite burden. Quantification of parasite outgrowth from titrations of ear tissue lysates was performed at the indicated times. Values shown are means+SE of 6 mice/group. […] The effect of IDO inhibition during cutaneous leishmaniasis on antigen-specific cytokine production. […] (F) IL-10. Cytokines were quantified by ELISA in the supernatants of soluble L. major antigen-stimulated cells isolated from draining lymph nodes 4 wk after infection. Values shown are means+SE of 6 mice/group. *P<0.05.
Lesion size was quantified with a vernier caliper. Parasite burden was quantified by determining the highest dilution of ear tissue lysates in which promastigote outgrowth could be detected out after 7 days of incubation. […] Cells isolated from lymph nodes draining lesions were incubated with L major promastigote lysates.
Cytokines were quantified by ELISA in culture supernatants harvested 48 h later.

[2] = L. major antigen-stimulated, ELISA, 4 wk after infection, vs untreated
[3] = early phase of parasite clearance (4 wk after infection), CCA assay

Description for T. gondii (ME49 strain): (B) Parasite burden. […] (C) Serum IFN-γ. (D) Serum TNF-α. (E) Serum IL-10. Systemic cytokine production was quantified by the CCA assay 30 d after infection. […] Values shown are means±SE of 8 mice/group. (F) Kinetic analysis of parasite burden in the experiment depicted in FIG. 1A. […] (G) IL-12/23p40 mRNA. (H) IFN-γ mRNA. (I) TNF-α mRNA. (J) IL-10 mRNA. Cytokine mRNA was quantified in brain by qRT-PCR 30 d after infection.
To evaluate parasite load, infected animals were killed and the number of T. gondii cysts present in brain homogenates from these animals were counted.

For Cn1cc(C[C@H](N)C(=O)O)c2ccccc21 [1-MT, 1-methyl tryptophan], the “amelioration of symptoms of visceral leishmaniasis” value (visceral leishmaniasis; oral 1-MT 12.5-75 mg/kg/day with a drug such as amphotericin at less than usual doses, Example 4) was “equivalent to that achieved with standard drug therapy alone”, the “amelioration of symptoms of visceral leishmaniasis” value (visceral leishmaniasis; oral 1-MT 12.5-75 mg/kg/day with a drug such as amphotericin at normal doses, Example 3) was “more rapid than that observed with standard drug therapy alone” and the “symptoms of visceral leishmaniasis” value (visceral leishmaniasis; oral 1-MT approximately 12.5-75 mg/kg/day alone, Example 2) was “Amelioration of symptoms is observed”. For the same molecule, the “serum levels of IFN-γ, TNF-α and IL-10” value (T. gondii (ME49 strain); CCA assay, 30 d after infection, vs control) was “No significant alteration”, the mortality (T. gondii (ME49 strain); T. gondii-infected mice given 1-MT, FIG. 1A) was 100% and the “mRNA expression of IL-12/23p40, IFN-γ, TNF-α and IL-10 in the central nervous system” value (T. gondii (ME49 strain); qRT-PCR in brain, 30 d after infection, vs control) was “lack of biologically important changes”. The mortality (T. gondii (ME49 strain); second independent experiment, not pictured, 1-MT vs control) was 100%, the “disease course and mortality” value (T. gondii) was “reactivation of disease and increased mortality” and the “local and systemic production of inflammatory mediators” value (T. gondii) was “relatively little differences”. The “serum levels of IL-4” value ([1]; 1-MT treated vs untreated infected mice, data not shown) was “no differences”, the “IFN-γ protein produced by cells from draining lymph nodes” value [1, 2] was “Relatively more” and the “IL-10 produced by T cells from draining lymph nodes” value [1, 2] was “relatively less”. For the same molecule, the “serum IFN-γ” value [1, 3] was “significantly increased”, the “serum IL-10 concentrations” value [1, 3] was “decreased” and the lesional size ([1]; first weeks after infection while lesion size increasing, vs untreated) was “No overt differences”. For the same molecule, the lesional size ([1]; post apex period, weeks 4-12 post infection, vs untreated) was “significantly smaller” and the parasite burden ([1]; weeks 4 through 12 post infection, vs controls, FIG. 4B) was “significantly lower”.
